Results: patent US20260274810A1, “NOVEL MITOFUSIN INHIBITORS” (ALBERT EINSTEIN COLLEGE OF MEDICINE, priority 2023, published 2026)
Numbered stars: 1 amine (or outer) side, 2 acyl side, 3 side chain; on linkers, the order of the positions; unused ones are H or OH. Bridge positions count the residues as written; N and C are the ends. Square brackets hold non-standard residues; d marks the D form. Peptide text beside a SMILES is read from it. I, II: the chains in the order shown. Hexamethylenediamine = C(CCCN[*:2])CCN[*:1]; Dip = N[C@H](C(=O)O)C(c1ccccc1)c1ccccc1; Chg = N[C@H](C(=O)O)C1CCCCC1; NMeA = CN[C@@H](C)C(=O)O

Tests used:
[1] = test system: MEFs; test: Mitochondrial aspect ratio (Mito AR), live cell imaging; conditions: for mitochondrial aspect ratio / mitochondrial fragmentation: WT cells
Procedure: Live cell imaging. MEFs were seeded on chamber slides (MatTek Corporation: 35 mm dishes, No. 1.5, 14 mm glass diameter) at ~70% confluence. […] Images were taken with Leica SP5 inverted confocal microscope. Data were analyzed with Image J software. >200 mitochondria were measured per condition in mitochondrial aspect ratio.
Measurement of mitochondrial aspect ratio (Mito AR). Images that depict stained mitochondria with mitotracker green were analyzed using FIJI We measured for each mitochondrion its length and width. Then, we divided the length by the width for each mitochondrion to get its mitochondrial aspect ratio. >200 mitochondria were measured per treatment.
MEFs were seeded on chamber slides (MatTek Corporation: 35 mm dishes, No. 1.5, 14 mm glass diameter) at ~70% confluence. Cells were treated with compounds. Then, cells were stained with MitoTracker Green (200 nM, Invitrogen) for 20 min at 37° C. After treatments, media was replaced with FluoroBrite™ DMEM (Invitrogen) supplemented with 10% FBS, 100 U ml^−1 penicillin/streptomycin, 2 mM L-glutamine and compound prior image acquisition. Images were taken with Leica SP5 inverted confocal microscope. Data were analyzed with Image J software. >200 mitochondria were measured per condition in mitochondrial aspect ratio. Measurement of mitochondrial aspect ratio (Mito AR). Images that depict stained mitochondria with mitotracker green were analyzed using FIJI software. Each mitochondrion was measured for its length and width. Then, the length was divided by the width for each mitochondrion to get its mitochondrial aspect ratio. >200 mitochondria were measured per treatment.

[2] = test system: cells; test: Cell death assay (Annexin V / PI); type: cell-based
Procedure: Cell death assay. Cells (2×10^5 cells/well) were seeded in a 6-well plate and treated with the indicated drugs for 6 hours. Cells were dissociated using Accutase (Thermo Fisher; Cat. #00-4555-56) in order to avoid accidental exposure of phosphatidylserine on the outer plasma membrane. Cell death was evaluated with Dead Cell Apoptosis Kit with Annexin V Alexa Fluor™ 488 & Propidium Iodide (Thermo Fisher; Cat. #V13241) according to manufacturer's protocol. Data was acquired by BD LSRII flow cytometer system using BD FACSDiva software. Data was analyzed by FlowJo (BD).

[3] = target: T1, HR2 domain of MFN2 (Homo sapiens, UniProt O95140); test: Microscale thermophoresis (MST) binding
T1 construct: Human MFN2 residues 678-757 corresponding to the HR2 domain; made in house; host or cells: E. coli BL21(DE3) CodonPlus (DE3)-RIPL
T1 sequence (O95140 678-757): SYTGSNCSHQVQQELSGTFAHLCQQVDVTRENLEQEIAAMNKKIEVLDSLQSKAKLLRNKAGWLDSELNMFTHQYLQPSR
Procedure: Freshly purified His-tagged MFN2-HR2 domain was used for Microscale Thermophoresis (MST) binding studies. For protein labelling, a fresh stock of 5 M His-tag-RED-tris-NTA 2nd generation dye (Nanotemper) in 25 mM Hepes pH 7.5, 100 mM NaCl, 0.005% Tween-20 (assay buffer) was used to label 500 nM of MFN2-HR2 in the same buffer. The labeling reaction was incubated for 30 min at RT and centrifuged at 15.000×g at 4° C. for 10 min. Labelled protein from the supernatant was kept on ice and used immediately. Compounds were serially diluted in 100% DMSO. Immediately before mixing with labeled protein, the dilution series was transferred in assay buffer to reach 2% DMSO. 10 μl of each compound in the final series was mixed with 10 µl of labeled protein and samples were incubated for 5 min at 30° C. before MST measurement using a MonolithNT.115 instrument (Nanotemper). Peptides were diluted in assay buffer plus 2% DMSO and treated as above. […] Kd values were obtained from non-linear regression fits of normalized data to a three or four parameter logistic curve, using GraphPad Prism 9.

[4] = test system: caspase-3/7 in MEFs; test: Caspase-3/7 activation assay; type: cell-based, mouse; conditions: 6 hr
Procedure: Caspase-3/7 activation assay. Cells (5×10^3 cells/well) were seeded in a 96-well white plate and treated with MASM7, MFI8. Caspase 3/7 activation was measured after 6 hr by addition of the Caspase-Glo 3/7 reagent according to the manufacturer's protocol (Promega). Luminescence was detected by a F200 PRO microplate reader (TECAN). Caspase assays were performed in at least triplicate and the data normalized to vehicle-treated control wells. Dilutions of MASM7 or MFI8 were performed using a TECAN D300e Digital Dispenser from 10 mM stocks.

[5] = test system: MFNs; conditions: reported small molecule; cited from earlier work
[6] = mouse liver microsome assay; type: in vitro ADME; conditions: FIG. 2

Structure (SMILES): Cc1cccc(NC(C)c2ccccc2O)c1C (stereo not shown) [MFI22]
- mitochondrial aspect ratio / mitochondrial fragmentation [1]: significantly reduced the capacity of the compound to promote mitochondrial fragmentation
- sensitization to BV6-induced cell death ([2]; combined with BV6): did not sensitize cells to BV6 treatment
- binding to the HR2 domain of MFN2 [3]: did not demonstrate measurable binding
- caspase-3/7 activity [4]: did not increase caspase-3/7 activity

Structure (SMILES): CN[C@@H](C)C(=O)N[C@H](C(=O)N1CCC[C@H]1C(=O)N[C@H](C(=O)NCCCCCCNC(=O)[C@@H](NC(=O)[C@@H]1CCCN1C(=O)[C@@H](NC(=O)[C@H](C)NC)C1CCCCC1)C(c1ccccc1)c1ccccc1)C(c1ccccc1)c1ccccc1)C1CCCCC1 [BV6, reference compound] (I: H-[NMeA][Chg]P[Dip] / II: H-[NMeA][Chg]P[Dip]; linker I:C-II:C via Hexamethylenediamine)
- cell death on BV6 treatment ([2]; deletion of MFNs): sensitized cells to BV6 treatment

Structure (SMILES): Cc1oncc1C(=O)Nc1ccc(C(F)(F)F)cc1 [Leflunomide]
- MFNs protein levels [5]: alters MFNs protein levels through loss of pyrimidine synthesis

Structure (SMILES): Cc1cccc(NC(C)c2cccc(Cl)c2)c1C (stereo not shown) [MFI26]
- mitochondrial aspect ratio / mitochondrial fragmentation [1]: detrimental for the activity
- binding to the HR2 domain of MFN2 [3]: did not demonstrate measurable binding

Structure (SMILES): Cc1cccc(NC(=O)c2cc(Cl)cc(-c3ccccn3)c2O)c1C [MFI43]
- IC50 ([1]; Mus musculus, 6 h, read-out: IC50 (decrease of Mito AR)): 1.79 µM
- half life (t½) [6]: increased half life
